Laboratory results: publication PMC5312529 (BMC Cancer, 2017)
Read-outs that look alike come from different tables or passages of the source. Marks after values point to notes of the source that are not given here.

Legend:
[1] = tested on: patients with locally advanced or metastatic pancreatic cancer; assay: Safety: treatment-emergent adverse events graded by CTCAE v 3.0; type: in vivo, human
Experimental: (§1) Prior to enrollment, the study protocol, patient informed consent, and any other written study documentation were approved by an ethics committee. This trial was conducted in accordance with the Declaration of Helsinki and the Good Clinical Practice Guidelines of the International Conference on Harmonization. Phase II of this open-label, multicenter, randomized, 2-arm, Phase I/II trial was conducted in patients with locally advanced or metastatic pancreatic cancer. […] Patients continued on treatment until disease progression, unacceptable toxicity, or patient unwillingness to participate.
All patients who received at least one dose of study drug were evaluated for safety and toxicity. AE severity was graded using the Common Terminology Criteria for AEs (CTCAE) v 3.0.

[2] = tested on: metastatic pancreatic adenocarcinoma; design: method as in PMID 21969517; details: MPACT; cited from earlier work
genomic DNA = assay: Nucleoside analog DNA incorporation assay (gemcitabine/dFdC in genomic DNA); type: in vivo, human
[3] = tested on: Stage II-IV locally advanced or metastatic pancreatic cancer; assay: Phase II randomized trial: overall survival, PFS, response (RECIST v 1.1); type: in vivo, human
Source text: Adult patients who had given informed consent had adequate hematological, liver, and renal functions; histological or cytological evidence of a diagnosis of Stage II or III adenocarcinoma of the pancreas not amenable to resection with curative intent or Stage IV disease; and an Eastern Cooperative Oncology Group performance status (ECOG PS) 0–2. Patients with previous radical surgery for pancreatic cancer were eligible after progression was documented.
as §1
In addition to the Bayesian model, frequentist analysis of OS was also performed as a sensitivity analysis. The definition of secondary efficacy variables was consistent with standard conventions per RECIST (v 1.1).

[4] = tested on: carbohydrate antigen 19–9 (CA19-9); assay: CA19-9 biomarker response; type: in vivo, human; details: patients with baseline CA19-9 > upper limit of normal
Source text: Exploratory analyses included: change from baseline in tumor size and carbohydrate antigen 19–9 (CA19-9) levels, and changes in QTcF from electrocardiograms (ECG) obtained at baseline and after LY2603618 administration on days 2 and 16 during cycle one. […] A sample for CA–19–9 analysis was collected at the start of each cycle.

[5] = tested on: patients with locally advanced or metastatic pancreatic cancer; assay: Patient disposition and treatment exposure; type: in vivo
Experimental: as §1
The first patient was enrolled on 26 February 2009.

[6] = tested on: patients with advanced solid tumors; details: cited from earlier work
[7] = LY2603618 plasma pharmacokinetics, noncompartmental analysis; type: in vivo, human; details: for Cmax / AUC(0-inf) / AUC(0-t) / clearance / Vd / half-life: 230 mg; for Cmax: read-out: Cmax, Geometric Mean (CV%); for AUC(0-inf): read-out: AUC(0-∞), Geometric Mean (CV%); for AUC(0-t): read-out: AUC(0–24), Geometric Mean (CV%); for clearance: read-out: CL, Geometric Mean (CV%) (converted); for Vd: read-out: Vss, Geometric Mean (CV%); for half-life: read-out: t1/2, Geometric Mean (CV%) (converted)
Experimental: LY2603618 concentrations were quantified using a validated high-pressure liquid chromatography/mass spectrometry/mass spectrometry method. Whole blood samples were collected following the LY2603618 infusion on days 2 and 16 of cycle 1 before the start (<10 min) of infusion; immediately prior to the end of infusion (<5 min); and at 1, 3, and 24 h after the end of infusion. LY2603618 PK parameters were computed from the plasma concentration versus time data by standard noncompartmental analyses (Phoenix WinNonlin version 6.3, Pharsight, A Certara Company®; Princeton, NJ, USA).

[8] = tested on: Fridericia’s heart rate-corrected QT interval (QTcF); assay: Exploratory QTcF assessment from electrocardiograms; type: in vivo, human; details: ECG at baseline and after LY2603618 on days 2 and 16 of cycle one
Source text: Exploratory analyses included: change from baseline in tumor size and carbohydrate antigen 19–9 (CA19-9) levels, and changes in QTcF from electrocardiograms (ECG) obtained at baseline and after LY2603618 administration on days 2 and 16 during cycle one.

[9] = tested on: patients with solid tumors; design: method as in PMID 27598338; details: in combination with gemcitabine; cited from earlier work
HT-29 xenograft models = tested on: HT-29 xenograft models; design: method as in data on file; details: nonclinical HT-29 xenograft models; ref data on file; cited from earlier work
[10] = study drug-related TEAE, any grade
[11] = 230 mg LY2603618, Cycle 1 Day 2
[12] = 230 mg LY2603618, Cycle 1 Day 16
[13] = 230 mg LY2603618, days 2 and 16 of cycle 1
[14] = human, plasma, intravenous, 230 mg LY2603618, Cycle 1 Day 2
[15] = human, plasma, intravenous, 230 mg LY2603618, Cycle 1 Day 16

For `Nc1ccn([C@@H]2O[C@H](CO)[C@@H](O)C2(F)F)c(=O)n1` [Gemcitabine, gemcitabine], the “Events leading to discontinuation that were possibly related to treatment” value ([1]; among patients who discontinued due to AEs) was “four”, the “Study drug-related treatment-emergent AEs (TEAEs), patients” value ([1]; any grade) was 91.2% and the “Patients with ≥1 TEAE (study drug-related)” value ([1]; any grade, safety population) was 31 (91.2) n (%). The “Patients who discontinued the study due to AEs” value ([1]; in vivo) was 6 n, the “Serious adverse events (SAE) related to study treatment, patients” value ([1]; in vivo) was 23.5% and the Alopecia [1, 10] was 4 (11.8) n (%). The Anemia [1, 10] was 9 (26.5) n (%), the Asthenia [1, 10] was 5 (14.7) n (%) and the Constipation [1, 10] was 3 (8.8) n (%). The Decreased appetite [1, 10] was 3 (8.8) n (%), the Diarrhea [1, 10] was 3 (8.8) n (%) and the Fatigue [1, 10] was 10 (29.4) n (%). For the same compound, the Leukopenia [1, 10] was 5 (14.7) n (%), the Nausea [1, 10] was 8 (23.5) n (%) and the Neutropenia [1, 10] was 9 (26.5) n (%). For the same compound, the Oedema peripheral [1, 10] was 2 (5.9) n (%), the “Patients who experienced anemia” value [1, 10] was 26.5% and the Pyrexia [1, 10] was 5 (14.7) n (%). For the same compound, the Stomatitis [1, 10] was 1 (2.9) n (%), the Thrombocytopenia [1, 10] was 14 (41.2) n (%) and the Vomiting [1, 10] was 3 (8.8) n (%). For the same compound, the Decreased hemoglobin ([1]; study drug-related, Grade 3) was 4 (11.8) n (%), the Decreased leukocytes ([1]; study drug-related, Grade 3) was 1 (2.9) n (%) and the Decreased platelets ([1]; study drug-related, Grade 3) was 3 (8.8) n (%). For the same compound, the Dehydration ([1]; study drug-related, Grade 3) was 2 (5.9) n (%), the Fatigue ([1]; study drug-related, Grade 3) was 3 (8.8) n (%) and the Hyponatremia ([1]; study drug-related, Grade 3) was 2 (5.9) n (%). The “Patients with ≥1 TEAE” value ([1]; study drug-related, Grade 3) was 19 (55.9) n (%), the Thrombotic microangiopathy ([1]; study drug-related, Grade 3) was 2 (5.9) n (%) and the Decreased hemoglobin ([1]; study drug-related, Grade 4) was 0 n (%). For the same compound, the Decreased leukocytes ([1]; study drug-related, Grade 4) was 1 (2.9) n (%), the Decreased platelets ([1]; study drug-related, Grade 4) was 1 (2.9) n (%) and the Dehydration ([1]; study drug-related, Grade 4) was 0 n (%). The Fatigue ([1]; study drug-related, Grade 4) was 0 n (%), the Hyponatremia ([1]; study drug-related, Grade 4) was 0 n (%) and the “Patients with ≥1 TEAE” value ([1]; study drug-related, Grade 4) was 3 (8.8) n (%). For the same compound, the Thrombotic microangiopathy ([1]; study drug-related, Grade 4) was 0 n (%), the “Median OS” value [2] was 6.7 months and the “dFdC levels incorporated into DNA over the treatment cycle” value (genomic DNA; following gemcitabine administration) was “declining to almost baseline by the end of each treatment cycle”. For the same compound, the “Median overall survival (OS)” value ([3]; ITT population, frequentist analysis) was 8.3 months, the “Best Overall Response: CR” value ([3]; in vivo) was 0 n (%; 95% CI) and the “Best Overall Response: PR” value ([3]; in vivo) was 3 (8.8%; 1.9–23.7) n (%; 95% CI). The “Best Overall Response: SD” value ([3]; in vivo) was 19 (55.9%; 37.9–72.8) n (%; 95% CI), the “Clinical Benefit Rate” value ([3]; in vivo) was 22 (64.7%; 46.5–80.3) n (%; 95% CI) and the Clinical benefit rate ([3]; in vivo) was 64.7%. The “Duration of response, Median (range)” value ([3]; in vivo) was 6.0 (3.7–6.8) mos, the “Percentage of patients with partial response (PR)” value ([3]; in vivo) was 8.8% and the “Patients with >50% reduction from baseline in CA19-9 levels” value [4] was 64%. For the same compound, the “Study discontinuation due to death” value ([5]; ITT population) was 2.9%, the “Study discontinuation due to progressive disease” value ([5]; ITT population) was 61.8% and the “Study discontinuation due to AE” value ([5]; human, in vivo) was 17.6%.
In the case of `NC(=O)Nc1cc(-c2cccc(F)c2)sc1C(=O)N[C@H]1CCCNC1` [AZD7762], the “Toxicity observed in Phase 1 study” value [6] is listed as “unpredictable cardiac toxicity was observed”.
For `Cc1cnc(NC(=O)Nc2cc(Br)c(C)cc2OC[C@@H]2CNCCO2)cn1` [LY2603618], the “Effect of the addition of LY2603618 on the safety profile of gemcitabine” value ([1]; in vivo) was “did not significantly change the safety profile of gemcitabine”, the “AUC(tlast-∞), Geometric Mean (CV%)” value [7, 11] was 14.3 (131) ^d % and the “Cav,24, Geometric Mean (CV%)” value [7, 11] was 966 (68) ^d ng/mL. The “AUC(tlast-∞), Geometric Mean (CV%)” value [7, 12] was 12.0 (152) ^e %, the “Cav,24, Geometric Mean (CV%)” value [7, 12] was 987 (60) ^e ng/mL and the “tmax, Median (range)” value [7, 12] was 1.00 (0.88–1.83) h. For the same compound, the “Individual PK profiles above the target for AUC(0-∞) (≥21,000 ng hr/mL)” value [7, 13] was 73%, the “Individual PK profiles above the target for Cmax (≥2000 ng/mL)” value [7, 13] was 87% and the Cmax ([7]; human, plasma, intravenous, 230 mg LY2603618 1-h infusion ~24 h after gemcitabine, Cycle 1 Day 2) was 3170 ng/mL. It also gave an AUC(0-inf) [7, 14] of 29400 ng·h/mL, an AUC(0-t) [7, 14] of 23200 ng·h/mL and a clearance [7, 14] of 130 mL/min. It also gave a Vd [7, 14] of 104 L, a half-life [7, 14] of 9.67 h and an AUC(0-inf) [7, 15] of 29100 ng·h/mL. It also gave an AUC(0-t) [7, 15] of 23700 ng·h/mL, a clearance [7, 15] of 131 mL/min and a Cmax [7, 15] of 3410 ng/mL. It also gave a Vd [7, 15] of 95.1 L, a half-life [7, 15] of 8.86 h and a Tmax ([7]; human, plasma, intravenous, 230 mg LY2603618, Cycle 1 Day 2, read-out: tmax, Median (range)) of 1 h. The “Patients with change in QTcF from baseline >60 msec” value [8] was “no patients”, the “Patients with change in QTcF from baseline between 30 and 60 msec” value [8] was “Five” and the “Trends in ECG parameter changes (time-point QTcF assessment)” value [8] was “no clinically significant trends”. The “Relation of increases in dFdC incorporation into DNA to LY2603618 dose” value (genomic DNA; in vivo) was “did not correspond to increasing doses of LY2603618”, the “Recommended Phase II dose” value [9] was 230 mg and the “Plasma systemic exposure target AUC(0-∞) that correlates with maximal pharmacodynamic effect” value (HT-29 xenograft models) was ≥ 21,000 ng hr/mL. The “Plasma systemic exposure target Cmax that correlates with maximal pharmacodynamic effect” value (HT-29 xenograft models) was at least 2000 ng/mL.
